Results from patent US7115629B2, “Carbamates derived from arylalkylamines” (Laboratorios S.A.L.V.A.T., S.A., priority 2000, dated 2006).
Structures can show the parent of a compound that is named as a salt.

target: T1, human M2 receptors (Homo sapiens, UniProt P08172); experiment: Binding test to cloned human M2 muscarinic receptor ([3H]-NMS displacement, CHO-K1 membranes), reported as M2/M3 ratio; settings: value greater than 1 indicates selectivity for the M3 receptor
T1 construct: purchased Receptor Biology; host or cells: CHO-K1 cells transfected with the human receptor (membranes)
T1 sequence (P08172 1-466): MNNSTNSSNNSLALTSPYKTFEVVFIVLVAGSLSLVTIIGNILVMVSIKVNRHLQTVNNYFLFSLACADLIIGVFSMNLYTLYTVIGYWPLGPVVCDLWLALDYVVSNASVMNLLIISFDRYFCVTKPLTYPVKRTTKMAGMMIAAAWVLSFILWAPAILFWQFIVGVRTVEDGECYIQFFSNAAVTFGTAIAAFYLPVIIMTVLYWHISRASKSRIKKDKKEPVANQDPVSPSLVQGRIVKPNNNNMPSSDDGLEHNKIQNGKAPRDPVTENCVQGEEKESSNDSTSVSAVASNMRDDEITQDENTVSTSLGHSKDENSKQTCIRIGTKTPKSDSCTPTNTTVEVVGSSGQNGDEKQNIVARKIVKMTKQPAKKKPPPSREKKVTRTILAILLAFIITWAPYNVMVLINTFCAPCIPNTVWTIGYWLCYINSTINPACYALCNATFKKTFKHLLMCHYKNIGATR
Description: (§1) Membranes from CHO—K1 cells transfected with human M2 or M3 receptors (Receptor Biology) were used. The summarised experimental procedure for both receptors was the following: membranes (15–20 μg) were incubated with [^3H]-NMS (0.3–0.5 nM) for 60 min at 25° C., in presence or absence of the antagonists. Incubation was carried out in 96 wells polystyrene microplates in a total incubation volume of 0.2 mL of PBS pH 7.4. Non specific binding was determined in parallel assays in presence of atropine (5 μM). Samples were filtered through type GF/C glass fibre, preincubated with PEI 0.3%. Filters were washed 3–4 times with 50 mM Tris-HCl, 0.9% NaCl, pH 7.4 at 4° C., and dried at 50° C. for 45 min. Filter bound radioactivity was quantified by liquid scintillation counting.
(§2) For the calculation of the inhibition constant (Ki), displacement curves were analysed by non-linear regression (GraphPad Prism). Dissociation constant (KD) of [^3H]-NMS for each receptor was obtained through the saturation curves obtained in the same conditions as the experiments carried out with the antagonists.

Row | Structure (SMILES) | M2/M3 (ratio between M2 and M3 receptor affinities)
1 | O=C(OC1CN2CCC1CC2)N(Cc1cccc(F)c1F)c1cccc(Cl)c1 (stereo not shown) [Example 20] | 149
2 | O=C(OC1CN2CCC1CC2)N(CC1CC=CCC1)c1cccc(Cl)c1 (stereo not shown) [Example 61] | 74
3 | CCc1ccc(CN(C(=O)OC2CN3CCC2CC3)c2ccccc2)cc1 (stereo not shown) [Example 40] | 92
4 | O=C(OC1CN2CCC1CC2)N(CC1CCC1)c1ccccc1 (stereo not shown) [Example 55] | 110
5 | Cc1cccc(N(Cc2ccc(C)c(F)c2)C(=O)OC2CN3CCC2CC3)c1 (stereo not shown) [Example 31] | 52
6 | Cc1cccc(N(Cc2ccc(F)cc2F)C(=O)OC2CN3CCC2CC3)c1 (stereo not shown) [Example 22] | 21
7 | O=C(OC1CN2CCC1CC2)N(Cc1cccc(OCc2ccccc2)c1)c1cccc(Cl)c1 (stereo not shown) [Example 48] | 24
8 | O=C(OC1CN2CCC1CC2)N(Cc1cc(F)c(F)c(F)c1)c1ccc(F)cc1 (stereo not shown) [Example 37] | 134
9 | O=C(OC1CN2CCC1CC2)N(Cc1ccc(C(F)(F)F)cc1)c1ccccc1 (stereo not shown) [Example 39] | 84
10 | Cc1cccc(N(CC2CCCC2)C(=O)OC2CN3CCC2CC3)c1 (stereo not shown) [Example 56] | 37
11 | COc1ccc(CN(C(=O)OC2CN3CCC2CC3)c2cccc(Cl)c2)c(F)c1 (stereo not shown) [Example 23] | 118
12 | Cc1cccc(N(Cc2cc(F)c(F)cc2F)C(=O)OC2CN3CCC2CC3)c1 (stereo not shown) [Example 35] | 839
13 | O=C(OC1CN2CCC1CC2)N(Cc1cc(F)ccc1F)c1ccccc1Cl (stereo not shown) [Example 24] | 33
14 | O=C(OC1CN2CCC1CC2)N(CC1CC1)c1ccccc1 (stereo not shown) [Example 54] | 32
15 | C[N+]12CCC(CC1)C(OC(=O)N(Cc1ccc(F)cc1)c1ccccc1)C2.[I-] (stereo not shown) [Example 64] | 30
16 | O=C(OC1CN2CCC1CC2)N(Cc1ccc2c(c1)OCO2)c1ccccc1 (stereo not shown) [Example 52] | 25
17 | Cc1cccc(N(Cc2ccccc2)C(=O)OC2CN3CCC2CC3)c1 (stereo not shown) [Example 10] | 44
18 | Cc1ccccc1N(Cc1cc(F)c(F)cc1F)C(=O)OC1C[N+]2(C)CCC1CC2.[I-] (stereo not shown) [Example 66] | 18
19 | Cc1cccc(N(Cc2cc(F)cc(F)c2)C(=O)OC2CN3CCC2CC3)c1 (stereo not shown) [Example 30] | 74
20 | O=C(OC1CN2CCC1CC2)N(CC1CC2CCC1C2)c1cccc(F)c1 (stereo not shown) [Example 62] | 115
21 | COc1ccc(CN(C(=O)OC2CN3CCC2CC3)c2ccccc2F)cc1F (stereo not shown) [Example 32] | 19
22 | Cc1ccccc1N(Cc1ccccc1)C(=O)OC1C[N+]2(C)CCC1CC2.[I-] (stereo not shown) [Example 65] | 13
23 | Cc1cccc(N(Cc2ccccc2C)C(=O)OC2CN3CCC2CC3)c1 (stereo not shown) [Example 38] | 40
24 | CC(C)(C)c1ccc(CN(C(=O)OC2CN3CCC2CC3)c2ccccc2)cc1 (stereo not shown) [Example 41] | 271
25 | O=C(OC1CN2CCC1CC2)N(Cc1ccccc1)c1ccccc1 (stereo not shown) [Example 1, 3-quinuclidyl N-benzyl-N-phenylcarbamate, hydrochloride] | 10
26 | O=C(OC1CN2CCC1CC2)N(Cc1cccc(OC(F)(F)F)c1)c1ccccc1 (stereo not shown) [Example 49] | 7

target: T2, human M3 receptors (Homo sapiens, UniProt P20309); experiment: Binding test to cloned human M3 muscarinic receptor ([3H]-NMS displacement, CHO-K1 membranes); settings: not given
T2 construct: purchased Receptor Biology; host or cells: CHO-K1 cells transfected with the human receptor (membranes)
T2 sequence (P20309 whole entry): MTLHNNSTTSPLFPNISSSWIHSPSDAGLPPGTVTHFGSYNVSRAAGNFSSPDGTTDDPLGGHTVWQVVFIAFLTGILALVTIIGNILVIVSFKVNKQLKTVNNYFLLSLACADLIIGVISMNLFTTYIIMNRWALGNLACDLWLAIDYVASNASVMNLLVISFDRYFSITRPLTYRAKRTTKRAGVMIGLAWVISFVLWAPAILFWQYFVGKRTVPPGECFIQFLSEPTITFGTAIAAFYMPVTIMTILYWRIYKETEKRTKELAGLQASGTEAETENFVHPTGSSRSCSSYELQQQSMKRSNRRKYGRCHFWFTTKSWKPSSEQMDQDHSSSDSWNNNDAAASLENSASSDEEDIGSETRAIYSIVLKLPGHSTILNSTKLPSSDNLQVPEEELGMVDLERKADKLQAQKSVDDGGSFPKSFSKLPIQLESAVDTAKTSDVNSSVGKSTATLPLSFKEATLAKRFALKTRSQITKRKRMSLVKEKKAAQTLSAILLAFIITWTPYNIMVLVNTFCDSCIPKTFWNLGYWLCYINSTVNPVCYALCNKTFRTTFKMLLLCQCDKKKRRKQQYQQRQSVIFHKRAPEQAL
Description: as §1, §2

Row | Structure (SMILES) | Ki
27 | O=C(OC1CN2CCC1CC2)N(Cc1ccccc1)c1ccccc1 (stereo not shown) [Example 1, 3-quinuclidyl N-benzyl-N-phenylcarbamate, hydrochloride] | 0.45 nM

same assay, conditions: membranes of CHO-K1 cells transfected with human M3; [3H]-NMS; mean of two independent experiments in duplicate; read-out: M3 (human M3 antagonist activity, binding affinity constant Ki)

Row | Structure (SMILES) | Ki
28 | O=C(OC1CN2CCC1CC2)N(Cc1cccc(F)c1F)c1cccc(Cl)c1 (stereo not shown) [Example 20] | 0.33 nM
29 | O=C(OC1CN2CCC1CC2)N(CC1CC=CCC1)c1cccc(Cl)c1 (stereo not shown) [Example 61] | 0.35 nM
30 | CCc1ccc(CN(C(=O)OC2CN3CCC2CC3)c2ccccc2)cc1 (stereo not shown) [Example 40] | 0.066 nM
31 | O=C(OC1CN2CCC1CC2)N(CC1CCC1)c1ccccc1 (stereo not shown) [Example 55] | 0.35 nM
32 | Cc1cccc(N(Cc2ccc(C)c(F)c2)C(=O)OC2CN3CCC2CC3)c1 (stereo not shown) [Example 31] | 0.32 nM
33 | Cc1cccc(N(Cc2ccc(F)cc2F)C(=O)OC2CN3CCC2CC3)c1 (stereo not shown) [Example 22] | 0.51 nM
34 | O=C(OC1CN2CCC1CC2)N(Cc1cccc(OCc2ccccc2)c1)c1cccc(Cl)c1 (stereo not shown) [Example 48] | 0.43 nM
35 | O=C(OC1CN2CCC1CC2)N(Cc1cc(F)c(F)c(F)c1)c1ccc(F)cc1 (stereo not shown) [Example 37] | 0.66 nM
36 | O=C(OC1CN2CCC1CC2)N(Cc1ccc(C(F)(F)F)cc1)c1ccccc1 (stereo not shown) [Example 39] | 0.32 nM
37 | Cc1cccc(N(CC2CCCC2)C(=O)OC2CN3CCC2CC3)c1 (stereo not shown) [Example 56] | 0.75 nM
38 | COc1ccc(CN(C(=O)OC2CN3CCC2CC3)c2cccc(Cl)c2)c(F)c1 (stereo not shown) [Example 23] | 0.73 nM
39 | Cc1cccc(N(Cc2cc(F)c(F)cc2F)C(=O)OC2CN3CCC2CC3)c1 (stereo not shown) [Example 35] | 0.031 nM
40 | O=C(OC1CN2CCC1CC2)N(Cc1cc(F)ccc1F)c1ccccc1Cl (stereo not shown) [Example 24] | 0.48 nM
41 | O=C(OC1CN2CCC1CC2)N(CC1CC1)c1ccccc1 (stereo not shown) [Example 54] | 0.6 nM
42 | C[N+]12CCC(CC1)C(OC(=O)N(Cc1ccc(F)cc1)c1ccccc1)C2.[I-] (stereo not shown) [Example 64] | 3.6 nM
43 | O=C(OC1CN2CCC1CC2)N(Cc1ccc2c(c1)OCO2)c1ccccc1 (stereo not shown) [Example 52] | 1.2 nM
44 | Cc1cccc(N(Cc2ccccc2)C(=O)OC2CN3CCC2CC3)c1 (stereo not shown) [Example 10] | 0.14 nM
45 | Cc1ccccc1N(Cc1cc(F)c(F)cc1F)C(=O)OC1C[N+]2(C)CCC1CC2.[I-] (stereo not shown) [Example 66] | 4.7 nM
46 | Cc1cccc(N(Cc2cc(F)cc(F)c2)C(=O)OC2CN3CCC2CC3)c1 (stereo not shown) [Example 30] | 0.09 nM
47 | O=C(OC1CN2CCC1CC2)N(CC1CC2CCC1C2)c1cccc(F)c1 (stereo not shown) [Example 62] | 0.22 nM
48 | COc1ccc(CN(C(=O)OC2CN3CCC2CC3)c2ccccc2F)cc1F (stereo not shown) [Example 32] | 3.3 nM
49 | Cc1ccccc1N(Cc1ccccc1)C(=O)OC1C[N+]2(C)CCC1CC2.[I-] (stereo not shown) [Example 65] | 14.3 nM
50 | Cc1cccc(N(Cc2ccccc2C)C(=O)OC2CN3CCC2CC3)c1 (stereo not shown) [Example 38] | 0.23 nM
51 | CC(C)(C)c1ccc(CN(C(=O)OC2CN3CCC2CC3)c2ccccc2)cc1 (stereo not shown) [Example 41] | 0.11 nM
52 | O=C(OC1CN2CCC1CC2)N(Cc1cccc(OC(F)(F)F)c1)c1ccccc1 (stereo not shown) [Example 49] | 10.1 nM
